Test results: ChEMBL document CHEMBL3045111, “Synthesis and herbicidal activities of novel 3-(substituted benzyloxy or phenoxy)-6-methyl-4-(3-trifluoromethylphenyl)pyridazine derivatives” (2012)
The source made the active and inactive calls. The rule behind the calls is not given here.

How the values were obtained:
[1] = test system: Brassica rapa subsp. oleifera; experiment: Post-emergence herbicidal activity against one-leaf stage Brassica rapa subsp. oleifera under greenhouse condition assessed as complete bleaching of leaves at 600 g /ha measured after 24 days by spray method; type: functional, organism-based
[2] = test system: Brassica rapa subsp. oleifera; experiment: Post-emergence herbicidal activity against one-leaf stage Brassica rapa subsp. oleifera under greenhouse condition at 7.5 g /ha measured after 24 days by spray method; type: functional; conditions: 576 h, read-out: GI
[3] = test system: Brassica rapa subsp. oleifera; experiment: Post-emergence herbicidal activity against one-leaf stage Brassica rapa subsp. oleifera under greenhouse condition at 15 g /ha measured after 24 days by spray method; type: functional; conditions: 576 h, read-out: GI
[4] = test system: Brassica rapa subsp. oleifera; experiment: Post-emergence herbicidal activity against one-leaf stage Brassica rapa subsp. oleifera under greenhouse condition at 30 g /ha measured after 24 days by spray method; type: functional; conditions: 576 h, read-out: GI
[5] = test system: Brassica rapa subsp. oleifera; experiment: Post-emergence herbicidal activity against one-leaf stage Brassica rapa subsp. oleifera under greenhouse condition at 60 g /ha measured after 24 days by spray method; type: functional; conditions: 576 h, read-out: GI
[6] = test system: Brassica rapa subsp. oleifera; experiment: Post-emergence herbicidal activity against one-leaf stage Brassica rapa subsp. oleifera under greenhouse condition at 75 g /ha measured after 24 days by spray method; type: functional; conditions: 576 h, read-out: GI
[7] = test system: Brassica rapa subsp. oleifera; experiment: Post-emergence herbicidal activity against one-leaf stage Brassica rapa subsp. oleifera under greenhouse condition at 150 g /ha measured after 24 days by spray method; type: functional; conditions: 576 h, read-out: GI
[8] = test system: Brassica rapa subsp. oleifera; experiment: Post-emergence herbicidal activity against one-leaf stage Brassica rapa subsp. oleifera under greenhouse condition at 300 g /ha measured after 24 days by spray method; type: functional; conditions: 576 h, read-out: GI
[9] = test system: Brassica rapa subsp. oleifera; experiment: Post-emergence herbicidal activity against one-leaf stage Brassica rapa subsp. oleifera under greenhouse condition at 600 g /ha measured after 24 days by spray method; type: functional; conditions: 576 h, read-out: GI
Digitaria [10] = experiment: Post-emergence herbicidal activity against one-leaf stage of Digitaria adscendens under greenhouse condition at 750 g /ha measured after 24 days by spray method; type: functional; conditions: in Digitaria adscendens, 576 h, read-out: GI
Echinochloa crus-galli [11] = experiment: Post-emergence herbicidal activity against one-leaf stage of Echinochloa crus-galli (barnyard grass) under greenhouse condition at 750 g /ha measured after 24 days by spray method; type: functional; conditions: 576 h, read-out: GI
Amaranthus retroflexus [12] = experiment: Post-emergence herbicidal activity against one-leaf stage of Amaranthus retroflexus under greenhouse condition at 750 g /ha measured after 24 days by spray method; type: functional; conditions: 576 h, read-out: GI
[13] = test system: Brassica rapa subsp. oleifera; experiment: Post-emergence herbicidal activity against one-leaf stage Brassica rapa subsp. oleifera under greenhouse condition at 750 g /ha measured after 24 days by spray method; type: functional; conditions: 576 h, read-out: GI
Digitaria [14] = experiment: Pre-emergence herbicidal activity against Digitaria adscendens under greenhouse condition at 750 g /ha measured after 24 days by spray method; type: functional; conditions: in Digitaria adscendens, 576 h, read-out: GI
Echinochloa crus-galli [15] = experiment: Pre-emergence herbicidal activity against Echinochloa crus-galli (barnyard grass) under greenhouse condition at 750 g /ha measured after 24 days by spray method; type: functional; conditions: 576 h, read-out: GI
Amaranthus retroflexus [16] = experiment: Pre-emergence herbicidal activity against Amaranthus retroflexus under greenhouse condition at 750 g /ha measured after 24 days by spray method; type: functional; conditions: 576 h, read-out: GI
[17] = test system: Brassica rapa subsp. oleifera; experiment: Pre-emergence herbicidal activity against Brassica rapa subsp. oleifera under greenhouse condition at 750 g /ha measured after 24 days by spray method; type: functional; conditions: 576 h, read-out: GI
Spirodela polyrhiza [18] = experiment: Bleaching herbicidal activity in Spirodela polyrhiza fronds cultured in compound-containing in medium assessed as chlorophyll inhibition at 1 ug/ml after 7 days; type: functional; conditions: 168 h
Spirodela polyrhiza [19] = experiment: Bleaching herbicidal activity in Spirodela polyrhiza fronds cultured in compound-containing in medium assessed as chlorophyll inhibition at 10 ug/ml after 7 days; type: functional; conditions: 168 h
Amaranthus retroflexus [20] = experiment: Post-emergence herbicidal activity against one-leaf stage Amaranthus retroflexus under greenhouse condition assessed as complete bleaching of leaves at 150 g /ha measured after 24 days by spray method; type: functional, organism-based
Amaranthus retroflexus [21] = experiment: Post-emergence herbicidal activity against one-leaf stage Amaranthus retroflexus under greenhouse condition assessed as complete bleaching of leaves at 300 g /ha measured after 24 days by spray method; type: functional, organism-based
Amaranthus retroflexus [22] = experiment: Post-emergence herbicidal activity against one-leaf stage Amaranthus retroflexus under greenhouse condition assessed as complete bleaching of leaves at 600 g /ha measured after 24 days by spray method; type: functional, organism-based
[23] = test system: Brassica rapa subsp. oleifera; experiment: Post-emergence herbicidal activity against one-leaf stage Brassica rapa subsp. oleifera under greenhouse condition assessed as complete bleaching of leaves at 7.5 g /ha measured after 24 days by spray method; type: functional, organism-based
[24] = test system: Brassica rapa subsp. oleifera; experiment: Post-emergence herbicidal activity against one-leaf stage Brassica rapa subsp. oleifera under greenhouse condition assessed as complete bleaching of leaves at 15 g /ha measured after 24 days by spray method; type: functional, organism-based
[25] = test system: Brassica rapa subsp. oleifera; experiment: Post-emergence herbicidal activity against one-leaf stage Brassica rapa subsp. oleifera under greenhouse condition assessed as complete bleaching of leaves at 30 g /ha measured after 24 days by spray method; type: functional, organism-based
[26] = test system: Brassica rapa subsp. oleifera; experiment: Post-emergence herbicidal activity against one-leaf stage Brassica rapa subsp. oleifera under greenhouse condition assessed as complete bleaching of leaves at 60 g /ha measured after 24 days by spray method; type: functional, organism-based
[27] = test system: Brassica rapa subsp. oleifera; experiment: Post-emergence herbicidal activity against one-leaf stage Brassica rapa subsp. oleifera under greenhouse condition assessed as complete bleaching of leaves at 75 g /ha measured after 24 days by spray method; type: functional, organism-based
[28] = test system: Brassica rapa subsp. oleifera; experiment: Post-emergence herbicidal activity against one-leaf stage Brassica rapa subsp. oleifera under greenhouse condition assessed as complete bleaching of leaves at 150 g /ha measured after 24 days by spray method; type: functional, organism-based
[29] = test system: Brassica rapa subsp. oleifera; experiment: Post-emergence herbicidal activity against one-leaf stage Brassica rapa subsp. oleifera under greenhouse condition assessed as complete bleaching of leaves at 300 g /ha measured after 24 days by spray method; type: functional, organism-based
Amaranthus retroflexus [30] = experiment: Post-emergence herbicidal activity against one-leaf stage Amaranthus retroflexus under greenhouse condition assessed as complete bleaching of leaves at 15 g /ha measured after 24 days by spray method; type: functional, organism-based
Amaranthus retroflexus [31] = experiment: Post-emergence herbicidal activity against one-leaf stage Amaranthus retroflexus under greenhouse condition at 7.5 g /ha measured after 24 days by spray method; type: functional; conditions: 576 h, read-out: GI
Amaranthus retroflexus [32] = experiment: Post-emergence herbicidal activity against one-leaf stage Amaranthus retroflexus under greenhouse condition at 15 g /ha measured after 24 days by spray method; type: functional; conditions: 576 h, read-out: GI
Amaranthus retroflexus [33] = experiment: Post-emergence herbicidal activity against one-leaf stage Amaranthus retroflexus under greenhouse condition at 30 g /ha measured after 24 days by spray method; type: functional; conditions: 576 h, read-out: GI
Amaranthus retroflexus [34] = experiment: Post-emergence herbicidal activity against one-leaf stage Amaranthus retroflexus under greenhouse condition at 60 g /ha measured after 24 days by spray method; type: functional; conditions: 576 h, read-out: GI
Amaranthus retroflexus [35] = experiment: Post-emergence herbicidal activity against one-leaf stage Amaranthus retroflexus under greenhouse condition at 75 g /ha measured after 24 days by spray method; type: functional; conditions: 576 h, read-out: GI
Amaranthus retroflexus [36] = experiment: Post-emergence herbicidal activity against one-leaf stage Amaranthus retroflexus under greenhouse condition at 150 g /ha measured after 24 days by spray method; type: functional; conditions: 576 h, read-out: GI
Amaranthus retroflexus [37] = experiment: Post-emergence herbicidal activity against one-leaf stage Amaranthus retroflexus under greenhouse condition at 300 g /ha measured after 24 days by spray method; type: functional; conditions: 576 h, read-out: GI
Amaranthus retroflexus [38] = experiment: Post-emergence herbicidal activity against one-leaf stage Amaranthus retroflexus under greenhouse condition at 600 g /ha measured after 24 days by spray method; type: functional; conditions: 576 h, read-out: GI
Amaranthus retroflexus [39] = experiment: Post-emergence herbicidal activity against one-leaf stage Amaranthus retroflexus under greenhouse condition assessed as complete bleaching of leaves at 7.5 g /ha measured after 24 days by spray method; type: functional, organism-based
Amaranthus retroflexus [40] = experiment: Post-emergence herbicidal activity against one-leaf stage Amaranthus retroflexus under greenhouse condition assessed as complete bleaching of leaves at 30 g /ha measured after 24 days by spray method; type: functional, organism-based
Amaranthus retroflexus [41] = experiment: Post-emergence herbicidal activity against one-leaf stage Amaranthus retroflexus under greenhouse condition assessed as complete bleaching of leaves at 60 g /ha measured after 24 days by spray method; type: functional, organism-based
Amaranthus retroflexus [42] = experiment: Post-emergence herbicidal activity against one-leaf stage Amaranthus retroflexus under greenhouse condition assessed as complete bleaching of leaves at 75 g /ha measured after 24 days by spray method; type: functional, organism-based

In the case of `Cc1cc(-c2cccc(C(F)(F)F)c2)c(Oc2ccc(Br)cc2)nn1`, the Activity [1] is reported as “Active”, the inhibition of growth at 7.5 g/ha [2] is reported as 68% and the inhibition of growth at 15 g/ha [3] is reported as 94%. The inhibition of growth at 30 g/ha [4] was 100%, the inhibition of growth at 60 g/ha [5] was 100% and the inhibition of growth at 75 g/ha [6] was 100%. The inhibition of growth at 150 g/ha [7] was 100%, the inhibition of growth at 300 g/ha [8] was 100% and the inhibition of growth at 600 g/ha [9] was 100%. The inhibition of growth at 750 g/ha (Digitaria [10]) was 93%, the inhibition of growth at 750 g/ha (Echinochloa crus-galli [11]) was 60% and the inhibition of growth at 750 g/ha (Amaranthus retroflexus [12]) was 100%. For the same compound, the inhibition of growth at 750 g/ha [13] was 94%, the inhibition of growth at 750 g/ha (Digitaria [14]) was 64% and the inhibition of growth at 750 g/ha (Echinochloa crus-galli [15]) was 60%. The inhibition of growth at 750 g/ha (Amaranthus retroflexus [16]) was 94%, the inhibition of growth at 750 g/ha [17] was 61% and the inhibition at 1 µg/mL (Spirodela polyrhiza [18]) was 80%. The inhibition at 10 µg/mL (Spirodela polyrhiza [19]) was 90%, the Activity (Amaranthus retroflexus [20]) was “Active” and the Activity (Amaranthus retroflexus [21]) was “Active”. The Activity (Amaranthus retroflexus [22]) was “Active”, the Activity [23] was “Active” and the Activity [24] was “Active”. For the same compound, the Activity [25] was “Active”, the Activity [26] was “Active” and the Activity [27] was “Active”. For the same compound, the Activity [28] was “Active”, the Activity [29] was “Active” and the Activity (Amaranthus retroflexus [30]) was “Active”. For the same compound, the inhibition of growth at 7.5 g/ha (Amaranthus retroflexus [31]) was 25%, the inhibition of growth at 15 g/ha (Amaranthus retroflexus [32]) was 28% and the inhibition of growth at 30 g/ha (Amaranthus retroflexus [33]) was 35%. It also gave an inhibition of growth at 60 g/ha (Amaranthus retroflexus [34]) of 51%, an inhibition of growth at 75 g/ha (Amaranthus retroflexus [35]) of 88% and an inhibition of growth at 150 g/ha (Amaranthus retroflexus [36]) of 100%. The inhibition of growth at 300 g/ha (Amaranthus retroflexus [37]) was 100%, the inhibition of growth at 600 g/ha (Amaranthus retroflexus [38]) was 100% and the Activity (Amaranthus retroflexus [39]) was “Active”. For the same compound, the Activity (Amaranthus retroflexus [40]) was “Active”, the Activity (Amaranthus retroflexus [41]) was “Active” and the Activity (Amaranthus retroflexus [42]) was “Active”.
